According to patent US20190216093A1, “COMPOSITIONS AND RELATED METHODS FOR AGRICULTURE” (priority 2017, published 2019):

Columns and labels:
[1] = tested on: Sitophilus maize weevils; assay: Weevil survival monitoring; format: in vivo, Sitophilus zeamais; conditions: S. zeamais mating pairs; 250 μg/ml or 2.5 mg/ml ciprofloxacin; 18 days
Procedure: Sitophilus maize weevils (Sitophilus zeamais) were reared on organic corn at 27.5° C. and 70% relative humidity. Prior to being used for weevil rearing, corn was frozen for 7 days and then tempered to 10% humidity with sterile water. […] For treatments, the appropriate amount of stock solution was diluted in sterile water.
Weevil survival was monitored daily for 18 days, after which DNA was extracted from the remaining weevils in each group. Briefly, the weevil body was surface sterilized by dipping the weevil into a 6% bleach solution for approximately 5 seconds. […] DNA concentration was measured using a nanodrop nucleic acid quantification, and SPE and weevil DNA copy numbers were measured by qPCR. […] The primers used for weevil (β-actin) were SACT144_FOR ([…]; SEQ ID NO: 240) and SACT314_REV ([…]; SEQ ID NO: 241) (Login et al., 2011). qPCR was performed using a qPCR amplification ramp of 1.6 degrees C./s and the following conditions: 1) 95° C. for 10 minutes, 2) 95° C. for 15 seconds, 3) 57° C. for 30 seconds, 4) repeat steps 2-3 40×, 5) 95° C. for 15 seconds, 6) 55° C. for 1 minute, 7) ramp change to 0.15 degrees C./s, 8) 95° C. for 1 second. qPCR data was analyzed using analytic (Thermo Fisher Scientific, QuantStudio Design and Analysis) software.

[2] = tested on: Sitophilus maize weevils; assay: Weevil offspring emergence (fecundity); conditions: 2.5 mg/ml ciprofloxacin; till day 43
[3] = tested on: Escherichia coli DH5α; assay: Assessment of antibiotic penetration into corn (E. coli growth on LB plates); format: cell-based; conditions: kernels soaked in 2.5 or 0.25 mg/ml ciprofloxacin
Procedure: The kernels were soaked for 1.5 hours as described herein. After soaking, kernels were air dried and assayed to determine whether the antibiotic was able to coat and penetrate the kernel. To test this, a concentrated sample of Escherichia coli DH5α in water was spread onto 5 Luria Broth (LB) plates. […] The plates were incubated overnight at 37 degrees C. and bacterial growth and/or zone(s) of inhibition were assessed the next day.
A concentrated culture of E. coli was then spread onto LB plates and one of the coated kernels was then placed onto the center of the plate. The plates were incubated overnight, and bacterial growth was assessed the next day.
The plates were incubated overnight and the next day bacterial growth was assessed.

[4] = tested on: Sitophilus maize weevils; assay: Weevil F1 offspring development (dissection of corn kernels); format: in vivo, Sitophilus zeamais; conditions: for offspring in the larval form: after 25 days; for number of offspring found in dissected corn kernels: after 25 days (water 12)

In the case of `O=C(O)c1cn(C2CC2)c2cc(N3CCNCC3)c(F)cc2c1=O` [ciprofloxacin], the weevil survival [1] is reported as “all weevils remained alive for the course of the experiment”, the “emerged F1 offspring” value [2] is reported as “much less offspring that emerged” and the “bacterial growth on plate with entire soaked corn kernel” value [3] is reported as “no bacteria grew on plates with entire corn kernels”. For the same compound, the F1 weevil development ([4]; 250 ug/ml and 2.5 mg/ml ciprofloxacin) was “showed a delay in development compared to control treated weevils”, the “offspring in the larval form” value ([4]; 250 ug/ml ciprofloxacin) was 38% and the “number of offspring found in dissected corn kernels” value ([4]; 250 ug/ml ciprofloxacin) was 13 offspring. For the same compound, the “offspring in the larval form” value ([4]; 2.5 mg/ml ciprofloxacin) was 65% and the “number of offspring found in dissected corn kernels” value ([4]; 2.5 mg/ml ciprofloxacin) was 20 offspring.
